Experimental data as given in US7994185B2, “Benzene sulfonamide thiazole and oxazole compounds” (Glaxo Smith Kline LLC, priority 2008, dated 2011).
Where two headings read alike, the source gives them in different places.

Columns and labels:
[1] = test system: Human colon tumor cells (Colo205); assay: Cell growth inhibition assay (CellTiter-Glo), Colo205; format: cell-based
Method in brief: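 Luminescent ATP read-out (CellTiter-Glo) served as a proxy for cell number; percent growth inhibition was calculated against DMSO vehicle wells. Cells were treated for 3 days at 37 °C with serially diluted compound, 0.2% DMSO final.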

[2] = test system: Human melanoma cancer cells (SK-MEL-28); assay: Cell growth inhibition assay (CellTiter-Glo), SK-MEL-28; format: cell-based
[3] = target: T1, BRAFV600E full-length (amino acids 2-766) (Homo sapiens, UniProt P15056, V600E); assay: B-Raf Accelerated MEK ATPase assay (BRAMA); format: biochemical
T1 construct: His6-tagged BRAFV600E full-length (amino acids 2-766); His6; made in house; host or cells: baculovirus expression system (insect cells)
T1 sequence (P15056 2-766 V600E): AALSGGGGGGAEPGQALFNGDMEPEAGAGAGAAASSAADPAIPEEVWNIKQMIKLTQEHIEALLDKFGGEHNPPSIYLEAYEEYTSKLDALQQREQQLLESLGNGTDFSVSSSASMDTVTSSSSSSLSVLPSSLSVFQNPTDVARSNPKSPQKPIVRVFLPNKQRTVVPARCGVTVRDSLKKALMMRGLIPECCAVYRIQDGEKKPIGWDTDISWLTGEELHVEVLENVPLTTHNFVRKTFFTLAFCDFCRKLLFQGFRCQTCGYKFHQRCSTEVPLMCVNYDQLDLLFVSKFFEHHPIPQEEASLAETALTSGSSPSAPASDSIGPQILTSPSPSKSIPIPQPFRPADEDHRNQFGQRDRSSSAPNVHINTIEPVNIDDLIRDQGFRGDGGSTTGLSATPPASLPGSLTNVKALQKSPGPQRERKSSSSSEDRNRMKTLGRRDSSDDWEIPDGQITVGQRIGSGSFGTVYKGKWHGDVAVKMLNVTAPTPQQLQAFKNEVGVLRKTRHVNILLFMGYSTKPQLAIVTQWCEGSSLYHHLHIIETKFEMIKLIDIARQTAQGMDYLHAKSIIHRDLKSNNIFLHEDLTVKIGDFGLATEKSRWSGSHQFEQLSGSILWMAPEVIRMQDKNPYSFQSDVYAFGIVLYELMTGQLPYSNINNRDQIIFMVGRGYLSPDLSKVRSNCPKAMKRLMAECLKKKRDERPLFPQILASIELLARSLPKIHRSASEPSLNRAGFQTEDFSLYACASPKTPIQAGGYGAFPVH
Method in brief: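 Coupled-enzyme readout: ADP generated by MEK-mediated ATP hydrolysis, uncoupled from ERK phosphorylation, is linked to NADH oxidation through pyruvate kinase and lactate dehydrogenase.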

[4] = COLO 205, 72 h, Table 2a, 3 days incubation, read-out: Activity in Colo205 Tumor Cells
[5] = COLO 205, Table 2b, later runs, average for the one or more runs, categorized, read-out: IC50 for Colo205
[6] = SK-MEL-28, 72 h, Table 3a, 3 days incubation, read-out: Activity in SK-MEL-28 Tumor Cells
[7] = SK-MEL-28, Table 3b, later runs, average for the one or more runs, categorized, read-out: IC50 for SK-MEL-28
[8] = B-Raf Activity, Table 1a, highest pIC50 for the one or more runs, categorized
[9] = B-Raf pIC50, Table 1b, later runs, average pIC50 for the one or more runs, categorized
[10] = Table 1b, later runs, average pIC50 for the one or more runs, categorized, read-out: B-Raf pIC50 (converted)

| Structure (SMILES) | IC50 [1, 4] | IC50 [1, 5] | IC50 [2, 6] | IC50 [2, 7] | IC50 [3, 8] | IC50 [3, 9] | IC50 [3, 10] | IC50 [3] |
| --- | --- | --- | --- | --- | --- | --- | --- | --- |
| Nc1nccc(-c2sc(C3CCCCC3)nc2-c2cccc(NS(=O)(=O)c3cc(F)ccc3F)c2F)n1 [Example 144] | < 100 nM | < 100 nM | < 100 nM | < 100 nM | < 100 nM | ≤ 3.16 nM | – | – |
| Cc1ccc(F)c(S(=O)(=O)Nc2cccc(-c3nc(C(C)(C)C)sc3-c3ccnc(N)n3)c2F)c1 [Example 145] | 100 to 1000 nM | 100 to 1000 nM | 100 to 1000 nM | 100 to 1000 nM | < 100 nM | 31.6 to 1000 nM | – | – |
| Cc1ccc(S(=O)(=O)Nc2cccc(-c3nc(C(C)(C)C)sc3-c3ccnc(N)n3)c2F)cc1 [Example 146] | 100 to 1000 nM | 100 to 1000 nM | 100 to 1000 nM | 100 to 1000 nM | < 100 nM | 31.6 to 1000 nM | – | – |
| Cc1cccc(S(=O)(=O)Nc2cccc(-c3nc(C(C)(C)C)sc3-c3ccnc(N)n3)c2F)c1 [Example 147] | 100 to 1000 nM | 100 to 1000 nM | 100 to 1000 nM | 100 to 1000 nM | < 100 nM | 31.6 to 1000 nM | – | – |
| CC(C)c1nc(-c2ccc(F)c(NS(=O)(=O)c3ccco3)c2)c(-c2ccnc(NCCCS(C)(=O)=O)n2)s1 [Example 148] | > 1000 nM | 1000 to 10000 nM | > 1000 nM | 1000 to 10000 nM | < 100 nM | – | 3.16 to 31.6 nM | – |
| COc1ccc(F)cc1S(=O)(=O)Nc1cccc(-c2nc(C(C)C)sc2-c2ccnc(NCCS(C)(=O)=O)n2)c1 [Example 149] | 100 to 1000 nM | 100 to 1000 nM | 100 to 1000 nM | 100 to 1000 nM | < 100 nM | 31.6 to 1000 nM | – | – |
| COc1ccc(F)cc1S(=O)(=O)Nc1cccc(-c2nc(C(C)C)sc2-c2ccnc(NC3CCN(S(C)(=O)=O)CC3)n2)c1 [Example 150] | 100 to 1000 nM | 100 to 1000 nM | 100 to 1000 nM | 100 to 1000 nM | 100 to 1000 nM | 31.6 to 1000 nM | – | – |
| CC(C)c1nc(-c2ccc(F)c(NS(=O)(=O)c3ccco3)c2)c(-c2ccnc(NC3CCN(S(C)(=O)=O)CC3)n2)s1 [Example 151] | 100 to 1000 nM | 100 to 1000 nM | 100 to 1000 nM | 100 to 1000 nM | < 100 nM | – | 3.16 to 31.6 nM | – |
| COc1ccc(F)cc1S(=O)(=O)Nc1cccc(-c2nc(C(C)C)sc2-c2ccnc(NCC(C)C)n2)c1F [Example 152] | < 100 nM | < 100 nM | < 100 nM | < 100 nM | < 100 nM | – | 3.16 to 31.6 nM | – |
| COc1ccc(F)cc1S(=O)(=O)Nc1cccc(-c2nc(C(C)C)sc2-c2ccnc(NC3CCN(S(C)(=O)=O)CC3)n2)c1F [Example 153] | < 100 nM | < 100 nM | < 100 nM | < 100 nM | < 100 nM | – | 3.16 to 31.6 nM | – |
| CC(C)CNc1nccc(-c2sc(C(C)C)nc2-c2cccc(NS(=O)(=O)c3ccco3)c2F)n1 [Example 154] | 100 to 1000 nM | 100 to 1000 nM | 100 to 1000 nM | 100 to 1000 nM | < 100 nM | ≤ 3.16 nM | – | – |
| CC(C)CNc1nccc(-c2sc(C(C)C)nc2-c2cccc(NS(=O)(=O)c3cccnc3)c2)n1 [Example 155] | 100 to 1000 nM | 100 to 1000 nM | 100 to 1000 nM | 100 to 1000 nM | < 100 nM | ≤ 3.16 nM | – | – |
| CC(C)(C)c1nc(-c2c(F)ccc(NS(=O)(=O)c3cccc(F)c3)c2F)c(-c2ccnc(N)n2)s1 [Example 157] | < 100 nM | < 100 nM | < 100 nM | < 100 nM | < 100 nM | ≤ 3.16 nM | – | – |
| CC(C)Nc1nccc(-c2sc(C(C)C)nc2-c2cccc(NS(=O)(=O)c3cccc(F)c3)c2)n1 [Example 158] | > 1000 nM | 1000 to 10000 nM | > 1000 nM | 1000 to 10000 nM | < 100 nM | 31.6 to 1000 nM | – | – |
| COCCNc1nccc(-c2sc(C(C)C)nc2-c2ccc(F)c(NS(=O)(=O)c3c(F)cccc3F)c2)n1 [Example 159] | 100 to 1000 nM | 100 to 1000 nM | 100 to 1000 nM | 100 to 1000 nM | 100 to 1000 nM | 31.6 to 1000 nM | – | – |
| CC(C)c1nc(-c2ccc(F)c(NS(=O)(=O)c3c(F)cccc3F)c2)c(-c2ccnc(NCCO)n2)s1 [Example 160] | 100 to 1000 nM | 100 to 1000 nM | 100 to 1000 nM | 100 to 1000 nM | 100 to 1000 nM | 31.6 to 1000 nM | – | – |
| CC(C)c1nc(-c2ccc(F)c(NS(=O)(=O)c3c(F)cccc3F)c2)c(-c2ccnc(NCCN(C)C)n2)s1 [Example 161] | > 1000 nM | 1000 to 10000 nM | > 1000 nM | 1000 to 10000 nM | 100 to 1000 nM | 31.6 to 1000 nM | – | – |

| Structure (SMILES) | IC50 [1, 4] | IC50 [1, 5] | IC50 [2, 6] | IC50 [2, 7] | IC50 [3, 8] | IC50 [3, 9] | IC50 [3, 10] | IC50 [3] |
| --- | --- | --- | --- | --- | --- | --- | --- | --- |
| COCC(C)Nc1nccc(-c2sc(C(C)C)nc2-c2ccc(F)c(NS(=O)(=O)c3c(F)cccc3F)c2)n1 (centres unmarked) [Example 162] | 100 to 1000 nM | 100 to 1000 nM | 100 to 1000 nM | 100 to 1000 nM | 100 to 1000 nM | 31.6 to 1000 nM | – | – |
| CC(C)c1nc(-c2ccc(F)c(NS(=O)(=O)c3c(F)cccc3F)c2)c(-c2ccnc(NCCCN(C)C)n2)s1 [Example 163] | > 1000 nM | 1000 to 10000 nM | > 1000 nM | – | – | – | – | > 1000 nM |
| CC(C)c1nc(-c2ccc(F)c(NS(=O)(=O)c3c(F)cccc3F)c2)c(-c2ccnc(NCCN3CCCC3)n2)s1 [Example 164] | > 1000 nM | 1000 to 10000 nM | > 1000 nM | 1000 to 10000 nM | – | – | – | > 1000 nM |
| CC(C)c1nc(-c2ccc(F)c(NS(=O)(=O)c3c(F)cccc3F)c2)c(-c2ccnc(NCCN3CCOCC3)n2)s1 [Example 165] | 100 to 1000 nM | 100 to 1000 nM | 100 to 1000 nM | 100 to 1000 nM | – | 31.6 to 1000 nM | – | – |
| CC(C)c1nc(-c2ccc(F)c(NS(=O)(=O)c3c(F)cccc3F)c2)c(-c2ccnc(NCCOCCO)n2)s1 [Example 166] | 100 to 1000 nM | 100 to 1000 nM | 100 to 1000 nM | 100 to 1000 nM | – | 31.6 to 1000 nM | – | – |
| CC(C)c1nc(-c2ccc(F)c(NS(=O)(=O)c3c(F)cccc3F)c2)c(-c2ccnc(NCCCCN(C)C)n2)s1 [Example 167] | 100 to 1000 nM | 100 to 1000 nM | > 1000 nM | 1000 to 10000 nM | – | 31.6 to 1000 nM | – | – |
| COCCCNc1nccc(-c2sc(C(C)C)nc2-c2ccc(F)c(NS(=O)(=O)c3c(F)cccc3F)c2)n1 [Example 168] | 100 to 1000 nM | 100 to 1000 nM | 100 to 1000 nM | 100 to 1000 nM | – | 31.6 to 1000 nM | – | – |
| CC(C)c1nc(-c2ccc(F)c(NS(=O)(=O)c3c(F)cccc3F)c2)c(-c2ccnc(NCCN3CCS(=O)(=O)CC3)n2)s1 [Example 175] | 100 to 1000 nM | 100 to 1000 nM | 100 to 1000 nM | 100 to 1000 nM | < 100 nM | 31.6 to 1000 nM | – | – |
| CC(C)CNc1nccc(-c2sc(C(C)C)nc2-c2cccc(NS(=O)(=O)c3c(F)cccc3F)c2F)n1 [Example 176] | < 100 nM | < 100 nM | < 100 nM | < 100 nM | < 100 nM | ≤ 3.16 nM | – | – |
| CC(C)(C)c1nc(-c2cccc(NS(=O)(=O)c3cc(F)ccc3F)c2F)c(-c2ccnc(NCC(F)F)n2)s1 [Example 177] | < 100 nM | 1000 to 10000 nM | < 100 nM | 1000 to 10000 nM | < 100 nM | ≤ 3.16 nM | – | – |
| CC(C)c1nc(-c2ccc(F)c(NS(=O)(=O)c3c(F)cccc3F)c2)c(-c2ccnc(NCCF)n2)s1 [Example 178] | 100 to 1000 nM | 100 to 1000 nM | 100 to 1000 nM | 100 to 1000 nM | < 100 nM | 31.6 to 1000 nM | – | – |
| CC(C)(C)c1nc(-c2cccc(NS(=O)(=O)c3cc(F)ccc3F)c2F)c(-c2ccnc(NCCF)n2)s1 [Example 179] | < 100 nM | < 100 nM | < 100 nM | < 100 nM | < 100 nM | ≤ 3.16 nM | – | – |
| CC(C)c1nc(-c2ccc(F)c(NS(=O)(=O)c3c(F)cccc3F)c2)c(-c2ccnc(NCCC(F)(F)F)n2)s1 [Example 180] | 100 to 1000 nM | 100 to 1000 nM | 100 to 1000 nM | 100 to 1000 nM | < 100 nM | – | 3.16 to 31.6 nM | – |
| CC(C)CNc1nccc(-c2sc(N3CCOCC3)nc2-c2cccc(NS(=O)(=O)c3cc(F)ccc3F)c2F)n1 [Example 182] | < 100 nM | < 100 nM | < 100 nM | < 100 nM | < 100 nM | ≤ 3.16 nM | – | – |
| CC(=O)NCCNc1nccc(-c2sc(C(C)C)nc2-c2ccc(F)c(NS(=O)(=O)c3c(F)cccc3F)c2)n1 [Example 183] | > 1000 nM | 1000 to 10000 nM | > 1000 nM | 1000 to 10000 nM | < 100 nM | 31.6 to 1000 nM | – | – |
| CC(C)c1nc(-c2ccc(F)c(NS(=O)(=O)c3cc(F)ccc3F)c2)c(-c2ccnc(NCCCN3CCCC3=O)n2)s1 [Example 184] | < 100 nM | < 100 nM | < 100 nM | < 100 nM | < 100 nM | – | 3.16 to 31.6 nM | – |
| CC(C)c1nc(-c2cccc(NS(=O)(=O)c3cc(F)ccc3F)c2F)c(-c2ccnc(NCCCN3CCCC3=O)n2)s1 [Example 185] | < 100 nM | < 100 nM | < 100 nM | < 100 nM | < 100 nM | ≤ 3.16 nM | – | – |
